Test results reported in US9321760B2 (Merck Patent GmbH, priority 2011, dated 2016).

target: P70S6K (T412E mutant) (Homo sapiens (Human), UniProt P23443, T412E); assay: P70S6K enzyme assay; type: biochemical; conditions: 3 nM P70S6K T412E mutant, 24 μM ATP, 1 μM FITC-AHA-AKRRRLSSLRA-OH substrate peptide, 90 min at 25° C.
Method in brief: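 P70S6K T412E mutant (3 nM) with 24 μM ATP and 1 μM FITC-labelled S6-derived peptide in Hepes pH 7.5, MgCl2, DTT, Brij buffer; 90 min at 25° C, stopped with EDTA. Phosphorylated product and substrate peptides separated by microfluidic mobility shift; IC50 values derived.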

Sequence of P70S6K (T412E mutant) (P23443 whole entry T412E): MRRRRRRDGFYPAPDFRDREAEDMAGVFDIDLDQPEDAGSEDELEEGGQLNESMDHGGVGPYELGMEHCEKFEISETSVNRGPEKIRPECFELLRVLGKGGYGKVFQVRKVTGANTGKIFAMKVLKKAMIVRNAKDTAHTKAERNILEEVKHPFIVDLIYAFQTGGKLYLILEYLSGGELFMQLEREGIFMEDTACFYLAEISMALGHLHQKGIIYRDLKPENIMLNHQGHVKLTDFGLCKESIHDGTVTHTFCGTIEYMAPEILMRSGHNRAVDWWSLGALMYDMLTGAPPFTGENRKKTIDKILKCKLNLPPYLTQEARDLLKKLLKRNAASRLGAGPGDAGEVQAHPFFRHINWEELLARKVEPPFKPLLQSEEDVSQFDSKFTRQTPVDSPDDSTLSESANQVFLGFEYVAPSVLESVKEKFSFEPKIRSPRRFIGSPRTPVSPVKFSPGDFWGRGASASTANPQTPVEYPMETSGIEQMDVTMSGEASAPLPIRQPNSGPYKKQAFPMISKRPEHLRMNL

Compared with `NCC(c1ccc(C(F)(F)F)cc1)N1CCN(c2ncnc(N)c2-c2cn[nH]c2)CC1` (centres unmarked) [Example 7, 6-{4-[2-Amino-1-(4-trifluoromethyl-phenyl)-ethyl]-piperazin-1-yl}-5-(1H-pyrazol-4-yl)-pyrimidin-4-ylamine], `NCC(c1ccc(C(F)(F)F)cc1)N1CCN(c2ncnc(N)c2F)CC1` (centres unmarked) [Example 74, 6-{4-[2-Amino-1-(4-trifluoromethyl-phenyl)-ethyl]-piperazin-1-yl}-5-fluoro-pyrimidin-4-ylamine] is 130-fold higher in IC50: 2.8 nM for the first, 370 nM for the second. The first is the more potent here.

`Nc1ncnc(N2CCC(C(O)c3ccc(Cl)cc3)CC2)c1-c1ccc(F)cc1` (centres unmarked) [Example 138] and `CN(C)CCOC(c1ccc(F)cc1)C1CCN(c2ncnc(N)c2-c2ccc(F)cc2)CC1` (centres unmarked) [Example 147, 5-(4-fluorophenyl)6-(4-((4-fluorophenyl)(2-(dimethlyamino)ethoxy)methyl)piperidin-1-yl)pyrimidin-4-amine] are within 1.5-fold of each other in IC50: 2.5 nM for the first, 2 nM for the second.

Going from `C[C@H](c1ccccc1)[C@H](CN)N1CCN(c2ncnc(N)c2-c2ccc(F)cc2)CC1` [Example 171, 6-[4-((1R,2R)-1-Aminomethyl-2-phenyl-propyl)-piperazin-1-yl]-5-(4-fluoro-phenyl)-pyrimidin-4-ylamine] to `Cn1ccnc1C(c1ccccc1)N1CCN(c2ncnc(N)c2-c2ccc(F)cc2)CC1` (centres unmarked) [Example 30, 5-(4-Fluoro-phenyl)-6-{4-[(1-methyl-1H-imidazol-2-yl)-phenyl-methyl]-piperazin-1-yl}-pyrimidin-4-ylamine], the IC50 falls from 73 nM to 34.5 nM (2.1-fold).

Going from `Nc1ncnc(N2CCC(N)(CNC(=O)c3ccc(F)cc3F)C2)c1-c1ccncc1` (centres unmarked) [Example 205, N-[3-Amino-1-(6-amino-5-pyridin-4-yl-pyrimidin-4-yl)-pyrrolidin-3-ylmethyl]-2,4-difluoro-benzamide] to `Nc1ncnc(N2CC[C@@](N)(CNC(=O)c3ccc(F)cc3F)C2)c1-c1ccc(F)cc1` [Example 248, N—{(R)-3-Amino-1-[6-amino-5-(4-fluoro-phenyl)-pyrimidin-4-yl]-pyrrolidin-3-ylmethyl}-2,4-difluoro-benzamide], the IC50 rises from 25 nM to 290 nM (12-fold).

Compared with `C=Cc1c(N)ncnc1N1CCN(C(CN(C)C)c2ccc(C(F)(F)F)cc2)CC1` (centres unmarked) [Example 21, 6-(4-(2-(dimethylamino)-1-(4-(trifluoromethyl)phenyl)ethyl)piperazin-1-yl)-5-vinylpyrimidin-4-amine], `CN(C)CC(c1ccc(C(F)(F)F)cc1)N1CCN(c2ncnc(N)c2C2CC2)CC1` (centres unmarked) [Example 28, 5-Cyclopropyl-6-(4-(2-(dimethylamino)-1-(4-(trifluoromethyl)phenyl)ethyl)piperazin-1-yl)pyrimidin-4-amine] is 7.4-fold higher in IC50: 35 nM for the first, 260 nM for the second. The first is the more potent here.

Compared with `NC(=O)C[C@H](NC(=O)C1(N)CCN(c2ncnc(N)c2Cl)CC1)c1ccc(Cl)cc1` [Example 217, 4-Amino-1-(6-amino-5-chloro-pyrimidin-4-yl)-piperidine-4-carboxylic acid [(S)-2-carbamoyl-1-(4-chloro-phenyl)ethyl]-amide], `N#Cc1c(N)ncnc1N1CCC(N)(C(=O)N[C@@H](CC(N)=O)c2ccc(Cl)cc2)CC1` [Example 221, 4-Amino-1-(6-amino-5-cyano-pyrimidin-4-yl)-piperidine-4-carboxylic acid [(S)-2-carbamoyl-1-(4-chloro-phenyl)-ethyl]-amide] is 5.9-fold lower in IC50: 820 nM for the first, 140 nM for the second.

Going from `N#Cc1ccc(-c2c(N)ncnc2N2CCC(N)(CNC(=O)c3ccc(F)cc3F)C2)cc1` (centres unmarked) [Example 199, N-{3-Amino-1-[6-amino-5-(4-cyano-phenyl)-pyrimidin-4-yl]-pyrrolidin-3-ylmethyl}-2,4-difluoro-benzamide] to `Nc1ncnc(N2CCC(N)(CNC(=O)c3ccc(F)cc3F)C2)c1-c1cccc(F)c1` (centres unmarked) [Example 204, N-{3-Amino-1-[6-amino-5-(3-fluoro-phenyl)-pyrimidin-4-yl]-pyrrolidin-3-ylmethyl}-2,4-difluoro-benzamide], the IC50 falls from 11 nM to 2.6 nM (4.2-fold). The second is the more potent here.

First: COC[C@H](NC(=O)C1(N)CCN(c2ncnc(N)c2C#N)CC1)c1ccc(Cl)cc1 [Example 241, 4-Amino-1-(6-amino-5-cyano-pyrimidin-4-yl)-piperidine-4-carboxylic acid [(R)-1-(4-chloro-phenyl)-2-methoxy-ethyl]-amide]
Second: N#Cc1c(N)ncnc1N1CCC(N)(C(=O)N[C@@H](CCO)c2ccc(Cl)cc2)CC1 [Example 242, 4-Amino-1-(6-amino-5-cyano-pyrimidin-4-yl)-piperidine-4-carboxylic acid [(S)-1-(4-chloro-phenyl)-3-hydroxy-propyl]-amide]
The IC50 of the first is 2.1-fold higher: 210 nM for the first, 98 nM for the second. The second is the more potent here.

First: Nc1ncnc(N2CCN(C(CN3CCCC3)c3cccc(C(F)(F)F)c3)CC2)c1-c1ccc(F)cc1 (centres unmarked) [Example 66, 5-(4-Fluorophenyl)-6{4-[1-(3-trifluoromethyl-phenyl)-2-pyrrolidin-1-yl-ethyl]-piperazin-1-yl}-pyrimidin-4-ylamine]
Second: COC(=O)c1ccc([C@H](CN2CCC2)N2CCN(c3ncnc(N)c3-c3ccc(F)cc3)CC2)cc1 [Example 111, 4-((R)-1-{4-[6-Amino-5-(4-fluoro-phenyl)-pyrimidin-4-yl]-piperazin-1-yl}-2-azetidin-1-yl-ethyl)-benzoic acid methyl ester]
The IC50 of the first is 2.3-fold lower: 82 nM for the first, 190 nM for the second. The first is the more potent here.

Compared with `Cc1ccc([C@H](CCO)NC(=O)C2(N)CCN(c3ncnc(N)c3Cl)CC2)cc1` [Example 237, 4-Amino-1-(6-amino-5-chloro-pyrimidin-4-yl)-piperidine-4-carboxylic acid ((S)-3-hydroxy-1-p-tolyl-propyl)-amide], `CCc1c(N)ncnc1N1CCN(C(CN)c2ccc(Cl)nc2)CC1` (centres unmarked) [Example 177, 6-{4-[2-Amino-1-(6-chloro-pyridin-3-yl)-ethyl]-piperazin-1-yl}-5-ethyl-pyrimidin-4-ylamine] is 4.3-fold lower in IC50: 860 nM for the first, 200 nM for the second. The second is the more potent here.

`CCc1c(N)ncnc1N1CCN(C(CN)C2CCCCC2)CC1` (centres unmarked) [Example 188, 6-[4-(2-Amino-1-cyclohexyl-ethyl)-piperazin-1-yl]-5-ethyl-pyrimidin-4-ylamine] and `NCC(c1ccc(C(F)(F)F)cc1)N1CCN(c2ncnc(N)c2O)CC1` (centres unmarked) [Example 35, 4-amino-6-(4-(2-amino-1-(4-(trifluoromethyl)phenyl)ethyl)piperazin-1-yl) pyrimidin-5-ol] cannot be ordered by IC50: greater than 1000 nM for the first, greater than 1000 nM for the second.

Going from `NC[C@H](c1ccc(Cl)nc1)N1CCN(c2ncnc(N)c2-c2ccc(F)cc2)CC1` [Example 176, 6-{4-[(S)-2-Amino-1-(6-chloro-pyridin-3-yl)-ethyl]-piperazin-1-yl}-5-(4-fluoro-phenyl)-pyrimidin-4-ylamine] to `CN(C)CC(c1ccc(C(F)(F)F)cc1)N1CCN(c2ncnc(N)c2-c2ccc(N)nc2)CC1` (centres unmarked) [Example 20, 5-(6-aminopyridin-3-yl)-6-(4-(2-(dimethylamino)-1-(4-(trifluoromethyl)-phenyl)ethyl)piperazin-1-yl)pyrimidin-4-amine], the IC50 rises from 0.8 nM to 69 nM (86-fold).

Going from `Nc1ncnc(N2CCN(C(CN3CCC3)c3cccc(Cl)c3Cl)CC2)c1-c1cn[nH]c1` (centres unmarked) [Example 126, 6-{4-[2-Azetidin-1-yl-1-(2,3-dichloro-phenyl)-ethyl]-piperazin-1-yl}-5-(1H-pyrazol-4-yl)-pyrimidin-4-ylamine] to `Nc1ncnc(N2CCC(Cc3ccc(Cl)cc3)CC2)c1Br` [Example 46, 5-Bromo-6{4-(4-chlorobenzyl)-piperidin-1-yl}pyrimidin-4-amine], the IC50 rises from 390 nM to 630 nM (1.6-fold).
